Assay results: patent publication US20120220624A1, “PYRAZOLO [3,4-B] PYRIDIN-4-ONE KINASE INHIBITORS” (priority 2009, published 2012)

molecular target: T1, CDK5-p25 kinase (Homo sapiens, UniProt Q00535); assay: CDK5-p25 kinase enzymatic assay; type: biochemical; settings: 0.3 nM CDK5-p25, 1.5 uM peptide, 5 uM ATP; X marks bin 50 nM-99 nM; read-out: IC50 potency, 50 nM-99 nM
T1 construct: purchased Invitrogen PV4677
Method: CDK5-p25 kinase (Invitrogen PV4677) enzymatic activity was measured using electrophoretic separation and fluorescent detection to monitor phosphorylation of a fluorescently labeled histone H1-derived peptide substrate, FL29 (5-FAM-GGGPATPKKAKKL-CONH2, Caliper #760429)
First, 0.25 uL of serially diluted compound in DMSO at 100× concentration was transferred into each well of a 384-well polystyrene assay plate. To this was added 15 uL of a 1.67× enzyme solution (500 pM enzyme, 1 mM DTT (Sigma D9779), 1× reconstitution buffer with protease inhibitor (Caliper #700329 proprietary formulation)), followed by centrifugation for 1 min at 1000 rpm, and incubation for 5-15 min at room temperature to allow binding of compound to enzyme. To initiate the reaction, 10 uL of substrate/ATP mix (245 mM Hepes pH 7.5, 0.003% Brij 35, 0.004% Tween, 12.75 uM ATP, 3.75 uM FL29 peptide) were added to each well, followed by centrifugation at 1000 rpm for 1 min. The reaction was then incubated at room temperature for 30 min. Final assay conditions were: 0.3 nM CDK5-p25, 1.5 uM peptide, 5 uM ATP, 0.6 mM DTT, 1% DMSO, 98 mM HEPES pH 7.5.
After incubation, reactions were quenched by the addition of 45 uL Caliper termination solution (Caliper proprietary formula), followed by centrifugation at 1000 rpm for 1 min. Extent of reaction (percentage conversion of substrate to phosphorylated product) was then measured using the Caliper EZ II reader. Dose-response curves were created by plotting the inhibition of enzyme activity (normalized relative to vehicle treated and no ATP control reactions) as a function of the log of compound concentration. The curve was analyzed using a four parameter logistical fit to calculate IC50 values.

T1 sequence (Q00535 whole entry): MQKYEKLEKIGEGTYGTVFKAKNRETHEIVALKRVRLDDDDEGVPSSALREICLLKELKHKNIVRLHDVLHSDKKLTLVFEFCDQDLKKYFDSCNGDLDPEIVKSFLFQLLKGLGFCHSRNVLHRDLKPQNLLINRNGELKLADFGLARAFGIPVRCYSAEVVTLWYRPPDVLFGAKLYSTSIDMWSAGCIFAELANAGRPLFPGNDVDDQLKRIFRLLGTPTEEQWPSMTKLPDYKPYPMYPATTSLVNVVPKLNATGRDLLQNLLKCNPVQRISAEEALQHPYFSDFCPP
T1 sequence (Q15078 99-307 partner limits assumed): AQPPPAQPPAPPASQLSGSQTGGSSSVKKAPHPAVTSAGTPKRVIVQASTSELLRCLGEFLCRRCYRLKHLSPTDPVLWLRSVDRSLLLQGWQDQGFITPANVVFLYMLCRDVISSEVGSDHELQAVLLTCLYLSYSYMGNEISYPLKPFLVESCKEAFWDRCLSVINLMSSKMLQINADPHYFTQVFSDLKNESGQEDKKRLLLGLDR

IC50 [nM] | Compound
50 to 99 | O=c1cc(Cc2ccc(-c3ccccc3)cc2)[nH]c2n[nH]c(C3CCC3)c12 [Example 3, 6-(biphenyl-4-ylmethyl)-3-cyclobutyl-2,7-dihydro-4H-pyrazolo[3,4-b]pyridin-4-one]
50 to 99 | CC(C)(C)c1ccc(Cc2cc(=O)c3c(C4CCC4)[nH]nc3[nH]2)cc1 [Example 4, 6-(4-tert-butylbenzyl)-3-cyclobutyl-2,7-dihydro-4H-pyrazolo[3,4-b]pyridin-4-one]

same assay, conditions: 0.3 nM CDK5-p25, 1.5 uM peptide, 5 uM ATP; X marks bin 100 nM-499 nM; read-out: IC50 potency, 100 nM-499 nM

IC50 [nM] | Compound
100 to 499 | O=c1cc(Cc2c(F)cccc2Cl)[nH]c2n[nH]c(C3CCC3)c12 [Example 2, 6-(2-chloro-6-fluorobenzyl)-3-cyclobutyl-2,7-dihydro-4H-pyrazolo[3,4-b]pyridin-4-one]
100 to 499 | O=c1cc(Cc2ccccc2-c2ccccc2)[nH]c2n[nH]c(C3CCC3)c12 [Example 5, 6-(biphenyl-2-ylmethyl)-3-cyclobutyl-2,7-dihydro-4H-pyrazolo[3,4-b]pyridin-4-one]
100 to 499 | O=c1cc(CC2CCCCC2)[nH]c2n[nH]c(C3CCC3)c12 [Example 7, 3-cyclobutyl-6-(cyclohexylmethyl)-2,7-dihydro-4H-pyrazolo[3,4-b]pyridin-4-one]

same assay, conditions: 0.3 nM CDK5-p25, 1.5 uM peptide, 5 uM ATP; X marks bin 500 nM-3 μM; read-out: IC50 potency, 500 nM-3 μM

IC50 [nM] | Compound
500 to 3000 | O=c1cc(Cc2ccc3ccccc3c2)[nH]c2n[nH]c(C3CC(F)(F)C3)c12 [Example 9, 3-(3,3-difluorocyclobutyl)-6-(naphthalen-2-ylmethyl)-2,7-dihydro-4H-pyrazolo[3,4-b]pyridin-4-one]
500 to 3000 | O=c1cc(Cc2ccc3ccccc3c2)[nH]c2n[nH]c([C@H]3C[C@@H](O)C3)c12 [Example 11, 3-(cis-3-hydroxycyclobutyl)-6-(naphthalen-2-ylmethyl)-2,7-dihydro-4H-pyrazolo[3,4-b]pyridin-4-one]

same assay, conditions: 0.3 nM CDK5-p25, 1.5 uM peptide, 5 uM ATP; X marks bin <50 nM; read-out: IC50 potency, <50 nM

Compound | IC50 [nM]
O=c1cc(Cc2ccc(Cl)c(Cl)c2)[nH]c2n[nH]c(C3CCC3)c12 [Example 6, 3-cyclobutyl-6-(3,4-dichlorobenzyl)-2,7-dihydro-4H-pyrazolo[3,4-b]pyridin-4-one] | < 50
O=c1cc(Cc2cc(F)cc(Cl)c2)[nH]c2n[nH]c(C3CCC3)c12 [Example 8, 6-(3-chloro-5-fluorobenzyl)-3-cyclobutyl-2,7-dihydro-4H-pyrazolo[3,4-b]pyridin-4-one] | < 50

The remaining lines, values ahead:

IC50 [nM] | Compound
< 50 | O=c1cc(Cc2ccc3ccccc3c2)[nH]c2n[nH]c(C3CCC3)c12 [Example 1, 3-cyclobutyl-6-(2-naphthylmethyl)-2,7-dihydro-4H-pyrazolo[3,4-b]pyridin-4-one]
< 50 | O=c1cc(Cc2ccc3ccccc3c2)[nH]c2n[nH]c([C@H]3C[C@H](O)C3)c12 [Example 10, 3-(trans-3-hydroxycyclobutyl)-6-(naphthalen-2-ylmethyl)-2,7-dihydro-4H-pyrazolo[3,4-b]pyridin-4-one]
< 50 | O=C1CC(c2[nH]nc3[nH]c(Cc4ccc5ccccc5c4)cc(=O)c23)C1 [Example 12, 6-(naphthalen-2-ylmethyl)-3-(3-oxocyclobutyl)-2,7-dihydro-4H-pyrazolo[3,4-b]pyridin-4-one]
